Laboratory results as given in PubChem BioAssay (NCI).
“And” between values parts separate entries of the source, which are not always exact repeats. Equal entries are not always repeated.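 48-hour exposure; five concentrations; linearly interpolated endpoints. GI50 is the concentration that inhibits growth by half. TGI marks complete inhibition of growth.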

Experiments:
Assay in all cases: DTP human tumour cell line panel, 48 h
OVCAR-4 ovarian = tested on: OVCAR-4 ovarian
BT-549 breast = tested on: BT-549 breast
OVCAR-8 ovarian = tested on: OVCAR-8 ovarian
TK-10 renal = tested on: TK-10 renal
SK-MEL-2 melanoma = tested on: SK-MEL-2 melanoma
SW-620 colon = tested on: SW-620 colon
RPMI-8226 leukemia = tested on: RPMI-8226 leukemia
HCC-2998 colon = tested on: HCC-2998 colon
RXF 393 renal = tested on: RXF 393 renal
SK-MEL-5 melanoma = tested on: SK-MEL-5 melanoma

## CCc1ccc(CCC(=O)Nc2ncc(Cc3cc(Cl)ccc3Cl)s2)o1
OVCAR-4 ovarian
  GI50: 1.78 µM
  TGI: 12.6 µM
BT-549 breast
  GI50: > 50 µM
  TGI: > 50 µM
OVCAR-8 ovarian
  GI50: 2.25 µM
  TGI: > 50 µM
TK-10 renal
  GI50: 3.47 µM
  TGI: > 50 µM
SK-MEL-2 melanoma
  GI50: 2.66 µM
  TGI: > 50 µM
SW-620 colon
  GI50: 0.935 µM
  TGI: > 50 µM
RPMI-8226 leukemia
  GI50: 1.21 µM
  TGI: 6.92 µM
HCC-2998 colon
  GI50: 2.99 µM
  TGI: > 50 µM
RXF 393 renal
  GI50: 1.19 µM
  TGI: 6.87 µM
SK-MEL-5 melanoma
  GI50: 1.21 µM
  TGI: > 50 µM

## O=C(CCCCCCC(=O)N/N=C/c1ccc(N(c2ccccc2)c2ccccc2)cc1)NO
OVCAR-4 ovarian
  GI50: 1.65 µM
  TGI: 8.72 µM
BT-549 breast
  GI50: 2.38 µM
  TGI: 11.5 µM
OVCAR-8 ovarian
  GI50: 3.02 µM
  TGI: 20.8 µM
TK-10 renal
  GI50: 0.314 µM
  TGI: 1.86 µM
SK-MEL-2 melanoma
  GI50: 2.71 µM
  TGI: 7.81 µM
SW-620 colon
  GI50: 2.49 µM
  TGI: 14.3 µM
RPMI-8226 leukemia
  GI50: 1.88 µM
  TGI: 14 µM
HCC-2998 colon
  GI50: 2.87 µM
  TGI: 11.2 µM
RXF 393 renal
  GI50: 2.27 µM
  TGI: 7.06 µM
SK-MEL-5 melanoma
  GI50: 1.76 µM
  TGI: 3.63 µM

## NC(=O)c1nnn(Cc2cc(Cl)c(C(=O)c3ccc(Cl)cc3)c(Cl)c2)c1N
OVCAR-4 ovarian
  GI50: > 9.09 µM
  TGI: > 9.09 µM and 39.1 µM
BT-549 breast
  TGI: > 52.4 µM
OVCAR-8 ovarian
  GI50: > 9.09 µM
  TGI: > 9.09 µM and 40.8 µM
TK-10 renal
  GI50: > 9.09 µM
  TGI: > 9.09 µM and 39 µM
SK-MEL-2 melanoma
  GI50: > 9.09 µM
  TGI: > 44 µM
SW-620 colon
  GI50: > 9.09 µM
  TGI: > 9.09 µM and 50.1 µM
RPMI-8226 leukemia
  GI50: > 9.09 µM
  TGI: > 70.6 µM
HCC-2998 colon
  GI50: 6.15 µM
  TGI: > 9.09 µM and 17.9 µM
RXF 393 renal
  GI50: > 9.09 µM
  TGI: > 9.09 µM and 39.3 µM
SK-MEL-5 melanoma
  GI50: > 9.09 µM
  TGI: > 9.09 µM and 32.7 µM

## CCOC(=O)c1ccc2c(c1)[n+](=O)c(C(=O)c1ccc3ccccc3c1)c(C(F)(F)F)n2[O-]
OVCAR-4 ovarian
  GI50: 0.261 µM
  TGI: 0.848 µM
BT-549 breast
  GI50: 1.53 µM
  TGI: 3.28 µM
OVCAR-8 ovarian
  GI50: 1.28 µM
  TGI: 2.7 µM
TK-10 renal
  GI50: 1.89 µM
  TGI: 3.3 µM
SK-MEL-2 melanoma
  GI50: 1.82 µM
  TGI: 3.4 µM
SW-620 colon
  GI50: 1.52 µM
  TGI: 2.92 µM
RPMI-8226 leukemia
  GI50: 1.1 µM
  TGI: 3.63 µM
HCC-2998 colon
  GI50: 1.65 µM
  TGI: 3.03 µM
RXF 393 renal
  GI50: 1.73 µM
  TGI: 3.26 µM
SK-MEL-5 melanoma
  GI50: 1.45 µM
  TGI: 2.78 µM

## O=C(N/N=C/c1coc2ccc(Cl)cc2c1=O)c1ccncc1
OVCAR-4 ovarian
  GI50: > 100 µM
  TGI: > 100 µM
BT-549 breast
  GI50: 71.3 µM
  TGI: > 100 µM
OVCAR-8 ovarian
  GI50: 35.6 µM
  TGI: > 100 µM
TK-10 renal
  GI50: 17.2 µM
  TGI: 52.5 µM
SK-MEL-2 melanoma
  GI50: 74.3 µM
  TGI: > 100 µM
SW-620 colon
  GI50: > 100 µM
  TGI: > 100 µM
RPMI-8226 leukemia
  GI50: 16.6 µM
  TGI: > 100 µM
HCC-2998 colon
  GI50: 30.3 µM
  TGI: 72.3 µM
RXF 393 renal
  GI50: 65.9 µM
  TGI: > 100 µM
SK-MEL-5 melanoma
  GI50: 44.8 µM
  TGI: > 100 µM

## O=C(CSc1nc2ccc([N+](=O)[O-])cc2[nH]1)Nc1cccc(Cl)c1
OVCAR-4 ovarian
  GI50: 2.13 µM
  TGI: 22.3 µM
BT-549 breast
  GI50: 2.72 µM
  TGI: 10.8 µM
OVCAR-8 ovarian
  GI50: 3.02 µM
  TGI: > 39.1 µM
TK-10 renal
  GI50: 3.31 µM
  TGI: 11.8 µM
SK-MEL-2 melanoma
  GI50: 2 µM
  TGI: 5.82 µM
SW-620 colon
  GI50: 3.38 µM
  TGI: 19.8 µM
RPMI-8226 leukemia
  GI50: 1.66 µM
  TGI: > 27.8 µM
HCC-2998 colon
  GI50: 3.17 µM
  TGI: 13.6 µM
RXF 393 renal
  GI50: 2.39 µM
  TGI: 8.49 µM
SK-MEL-5 melanoma
  GI50: 1.2 µM
  TGI: 2.6 µM

## C=CCCC(O)c1ccc(C(O)CCCCCCCCCCCC)o1 (stereo not drawn)
OVCAR-4 ovarian
  GI50: 30.9 µM
  TGI: 92.9 µM
BT-549 breast
  GI50: 19.9 µM
  TGI: 42.2 µM
OVCAR-8 ovarian
  GI50: 13.5 µM
  TGI: 30.3 µM
TK-10 renal
  GI50: 16.4 µM
  TGI: 30.2 µM
SK-MEL-2 melanoma
  GI50: 28.6 µM
  TGI: 89.4 µM
SW-620 colon
  GI50: 17.9 µM
  TGI: 37.9 µM
RPMI-8226 leukemia
  GI50: 27.1 µM
  TGI: > 100 µM
HCC-2998 colon
  GI50: 21.4 µM
  TGI: 37.2 µM
RXF 393 renal
  GI50: 16 µM
  TGI: 33.2 µM
SK-MEL-5 melanoma
  GI50: 20.1 µM
  TGI: 35.7 µM

## COc1ccc(-c2cn(-c3ccc(Cl)cc3)c(=S)[nH]2)cc1OC
OVCAR-4 ovarian
  GI50: 20.8 µM
  TGI: > 100 µM
BT-549 breast
  GI50: 7.3 µM
  TGI: > 100 µM
OVCAR-8 ovarian
  GI50: 46.7 µM
  TGI: > 100 µM
TK-10 renal
  GI50: 12.1 µM
  TGI: > 100 µM
SK-MEL-2 melanoma
  GI50: > 100 µM
  TGI: > 100 µM
SW-620 colon
  GI50: > 100 µM
  TGI: > 100 µM
RPMI-8226 leukemia
  GI50: 4.43 µM
  TGI: 92.3 µM
HCC-2998 colon
  GI50: 56.2 µM
  TGI: > 100 µM
RXF 393 renal
  GI50: 2.98 µM
  TGI: > 100 µM
SK-MEL-5 melanoma
  GI50: 2.92 µM
  TGI: > 100 µM

## O=C(Nc1ncc(Cc2ccccc2)s1)c1ccc2c(c1)OCCO2
OVCAR-4 ovarian
  GI50: 0.561 µM
  TGI: > 100 µM
BT-549 breast
  GI50: 0.267 µM
  TGI: > 100 µM
OVCAR-8 ovarian
  GI50: 0.0591 µM
  TGI: > 100 µM
TK-10 renal
  GI50: 0.154 µM
SK-MEL-2 melanoma
  GI50: 0.101 µM
  TGI: > 100 µM
SW-620 colon
  GI50: 0.0435 µM
  TGI: > 100 µM
RPMI-8226 leukemia
  GI50: 0.0587 µM
  TGI: > 100 µM
HCC-2998 colon
  GI50: 0.0729 µM
  TGI: 1.63 µM
RXF 393 renal
  GI50: 0.0231 µM
  TGI: 0.0715 µM
SK-MEL-5 melanoma
  GI50: 0.0428 µM
  TGI: 0.454 µM

## O=C1CSC(=S)N1c1ccc(F)cc1F
OVCAR-4 ovarian
  TGI: > 100 µM
BT-549 breast
  TGI: > 100 µM
OVCAR-8 ovarian
  TGI: > 100 µM
TK-10 renal
  TGI: > 100 µM
SK-MEL-2 melanoma
  TGI: > 100 µM
SW-620 colon
  TGI: > 100 µM
RPMI-8226 leukemia
  TGI: 66.4 µM
HCC-2998 colon
  TGI: > 100 µM
RXF 393 renal
  TGI: > 100 µM
SK-MEL-5 melanoma
  TGI: 54.6 µM

## Nc1ccccc1/C=N\Nc1ccccc1
OVCAR-4 ovarian
  GI50: 3.91 µM
  TGI: > 100 µM
BT-549 breast
  GI50: 74.1 µM
  TGI: > 100 µM
OVCAR-8 ovarian
  GI50: > 100 µM
  TGI: > 100 µM
TK-10 renal
  GI50: > 100 µM
  TGI: > 100 µM
SK-MEL-2 melanoma
  GI50: 65.4 µM
  TGI: > 100 µM
SW-620 colon
  GI50: 11.5 µM
  TGI: > 100 µM
RPMI-8226 leukemia
  GI50: > 100 µM
  TGI: > 100 µM
HCC-2998 colon
  GI50: 3.16 µM
  TGI: > 100 µM
RXF 393 renal
  GI50: > 100 µM
  TGI: > 100 µM
SK-MEL-5 melanoma
  GI50: 2.69 µM
  TGI: 7.98 µM
